Measured values taken from patent US20240158385A1, “NOVEL COMPOUNDS” (Cerevance, Inc., priority 2021, published 2024).
Where two headings read alike, the source gives them in different places.

What was measured:
human KCNK13 = biological target: T1, human KCNK13 (Homo sapiens, UniProt Q9HB14); experiment: KCNK13 antagonist activity, thallium (Tl+) flux FLIPR assay; format: cell-based
T1 construct: expressed in transfected cells
T1 sequence (Q9HB14 1-408): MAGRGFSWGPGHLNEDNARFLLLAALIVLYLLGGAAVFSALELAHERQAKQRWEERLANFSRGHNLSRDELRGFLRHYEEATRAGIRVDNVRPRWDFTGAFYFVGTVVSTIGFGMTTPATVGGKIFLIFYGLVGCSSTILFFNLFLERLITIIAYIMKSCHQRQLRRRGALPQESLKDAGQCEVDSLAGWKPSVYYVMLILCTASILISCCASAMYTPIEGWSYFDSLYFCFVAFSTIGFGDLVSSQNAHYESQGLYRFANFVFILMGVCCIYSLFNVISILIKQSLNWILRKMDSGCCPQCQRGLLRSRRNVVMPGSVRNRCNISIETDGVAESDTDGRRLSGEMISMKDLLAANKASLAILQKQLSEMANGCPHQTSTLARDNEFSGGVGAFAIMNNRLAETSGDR
Procedure, shortened: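 HEK 293 cells stably expressing human KCNK13 loaded with Tl+-sensitive dye for 1 h at room temperature. Compounds (10-point half-log curves) preincubated 15 min before thallium sulfate stimulus, fluorescence tracked by FLIPR. IC50 from ten-point curves, each point the mean of two wells.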

[1] = system: IL-1β, mouse primary microglia; experiment: Inflammasome assay in primary mouse postnatal microglia using LPS/0 mM extracellular K+ (IL-1β levels); format: cell-based; details: 100 ng/mL LPS 3.5 hours, compound 30 minutes, then K+ free buffer 2 hours, IL-1β by MesoScale Discovery
Method: Newly shaken mouse microglia cells were added to a 96-well plate and left to adhere overnight. After this time, 100 ng/mL LPS was added to each well and incubated at 37° C. for 3.5 hours, at which point compound addition was undertaken and plates incubated at 37° C. for an additional 30 minutes. After this time, the medium in each well was removed and replaced with K^+ free buffer and the plates then incubated for an additional 2 hours at 37° C. Measurement of IL-1βlevels in the sample wells was undertaken using MesoScale Discovery™ MESO QuickPlex SQ 120 and […] from mouse IL-1β DuoSet ELISA kit (R&D System, DY401).

[2] = HEK 293 cells stably expressing human KCNK13, Tl+ sensitive dye, FLIPR, compounds 15 minutes prior to thallium sulfate, 10 point half log curves from 10 PM, read-out: hKCNK13 IC50

| Structure (SMILES) | IC50 (human KCNK13; [2]) | IC50 [1] | IC50 (human KCNK13) |
| --- | --- | --- | --- |
| Nc1nonc1-c1nc2cccc(F)c2n1Cc1ccncc1 (single isomer, unassigned) [Example 120, 4-[7-fluoro-1-(pyridin-4-ylmethyl)benzimidazol-2-yl]-1,2,5-oxadiazol-3-amine] | < 50 nM | ≤ 50 nM |  |
| Nc1nonc1-c1nc2cccc(F)c2n1Cc1cnccn1 [Example 32, 4-[7-fluoro-1-(pyrazin-2-ylmethyl)benzimidazol-2-yl]-1,2,5-oxadiazol-3-amine] | < 50 nM | ≤ 200 nM |  |
| Nc1nonc1-c1nc2ccccc2n1Cc1ccncc1 [Example 71, 4-[1-(pyridin-4-ylmethyl)benzimidazol-2-yl]-1,2,5-oxadiazol-3-amine] | < 100 nM | ≤ 200 nM |  |
| Cc1nonc1-c1nc2ccccc2n1Cc1cncnc1 [Example 57, 3-methyl-4-[1-(pyrimidin-5-ylmethyl)benzimidazol-2-yl]-1,2,5-oxadiazole] | < 100 nM | ≤ 200 nM |  |
| Nc1nonc1-c1nc2ccccc2n1Cc1cncnc1 [Example 21, 4-[1-(pyrimidin-5-ylmethyl)benzimidazol-2-yl]-1,2,5-oxadiazol-3-amine] |  | ≤ 100 nM | < 50 nM |
| Nc1nonc1-c1nc2cccc(F)c2n1Cc1cccnc1 (single isomer, unassigned) [Example 86, 4-[7-fluoro-1-(pyridin-3-ylmethyl)benzimidazol-2-yl]-1,2,5-oxadiazol-3-amine] | < 50 nM | ≤ 50 nM |  |
| Cc1nonc1-c1nc2cccc(F)c2n1Cc1cncnc1 [Example 49, 3-[7-fluoro-1-(pyrimidin-5-ylmethyl)benzimidazol-2-yl]-4-methyl-1,2,5-oxadiazole] | < 100 nM | ≤ 50 nM |  |
